Reference: patent publication US20050182002A1, “Agents which interact with a serotonin transporter for the treatment of cancer” (priority 2002, published 2005)
Like-named read-outs stand apart in the source and are kept apart here.

What was measured:
[1] = system: actively cycling tonsilar B cells; test: DNA synthesis in actively cycling tonsilar B cells; format: cell-based; settings: overnight fluoxetine up to 20 μM after 2 days stimulation with SAC (± CD40L) or PMA (± ionomycin)
[2] = system: L3055 BL cells; test: Annexin V binding (phosphatidylserine exposure), FACS; format: cell-based; settings: fluoxetine 20 μM, 17 h, 10^6/ml, Means ± SE of 3
Text: Annexin V binding to phosphatidylserine exposed on the outer leaflet of cells to signal for phagocytic engulfment is another commonly used measure of programmed death although caution should be applied when using as a sole indicator for assessing apoptosis in B cells.

[3] = system: non-BL lines Nalm-6, RPMI 8226, Jurkat, J10, and CEM; test: DNA synthesis (3H-Thymidine incorporation) in non-BL lines; format: cell-based; settings: data not shown
[4] = system: L3055 cells; test: Syto 16 / propidium iodide staining (viable, apoptotic, necrotic); format: cell-based
Method: Changes in the viability of cells cultured under conditions indicated below were quantified by assessment of forward and 90° (side) light scatter of cells as previously described (Dive C, et al. Biochimica Biophysica Acta (1992); 1133:275-285) using an EPICS XL-MCL flow cytometer (Beckman Coulter, Miami, Fla., USA). Prior to analysis, cells were harvested into polythene FACS tubes, and fixed at 4° C. in 400 μl of FACS buffer [PBS with 5% NGS and 2% Formaldehyde] (BDH/MERCK). Cells were gated in two populations (viable and dead) according to their forward and side light scatter. Viability was expressed as a percentage of the total number of cells residing in the viable and non-viable gates. Cells were also analysed according to Schuurhuis et al (Schuurhuis G J, et al. Exp. Haematol. (1997); 25:754-759) in order to assess the percentages within treated populations of those that were viable, apoptotic, or necrotic. Syto 16 was added at a concentration of 250 nM in PBS to 500,000 cells and incubated at RT for 30 min, at which time 5 μg/ml propidium iodide (PI) was added. Samples were then analysed immediately by FACS and a 2D plot generated of syto 16 fluorescence versus PI fluorescence: syto 16 is taken up only by viable cells whereas Pi exclusively enters necrotic cells—syto 16^−ve/PI^−ve cells are deemed apoptotic.

[5] = system: L3055 BL cells; test: TUNEL DNA strand breaks, FACS; format: cell-based; settings: fluoxetine 20 μM, 17 h, 10^6/ml; Means ± SE of 3; control 17.8 ± 3.7
Text: Neither BL cells nor their normal germinal centre B cell equivalents tended to produce the extensive “DNA ladders” that can be seen as a result of DNA fragmentation when other cells (e.g. thymocytes) undergo apoptosis.

[6] = system: normal peripheral blood mononuclear cells (PBMC); settings: 24 h
Text: Patients on SSRI's for depression sustain their circulating levels for months on repeated administrations. Also, circulating levels are believed to represent a gross underestimation of the accumulation of SSRI in body tissues. The lymphoma are, by definition, tumours of lymphoid tissues (e.g. lymph nodes).

[7] = system: biopsylike BL cells; test: Real-time RT-PCR gene expression; format: cell-based; settings: data not shown
Text: BL is characterised by translocations of one c-myc allele to one of the immunoglobulin loci and the extraordinarily high growth rate that characterises these tumours reflects the pro-proliferative actions of the translocated gene. Despite its hallmark translocation to immunoglobulin loci, the BL-associated constitutive expression of c-myc remains dependent on the binding of the recognised c-myc transcription factor Nm23-H2 to a PuF site within the regulatory sequence of the translocated gene.

[8] = system: L3055 cells; test: Caspase activity (FAM-VAD-FMK, FACS); format: cell-based; settings: single dose for 24 hours; fluoxetine 10 μM, paroxetine 10 μM, citalopram 100 μM
Method: Caspase activity was detected using the CaspaTag Caspase Activity Kit (Intergen, Oxford, UK). Cells cultured under the conditions indicated below were harvested into 300 μl of culture medium at a cell density of 10^6cells/ml, followed by the addition of […] of a 30×working solution of FAM-VAD-FMK (a carboxy fluorescent tagged caspase inhibitor) (Intergen Co., USA). Cells were then incubated for 1 hr at 37° C. under 5% CO2 while protecting the tubes from light. At the end of the incubation, they were washed twice in 2 ml of 1×washing buffer, followed by addition of 2 μl of PI to distinguish dead cells from live cells, then analysed on an EPICS XL-MCL flow cytometer or by confocal microscopy. For the latter, treated cells were harvested into 300 μl of culture medium containing 10 μl of FAM-VAD-FMK before incubating for 1 hr under the conditions described above. Next, 1.5 μl of Hoechst 33342 stain was added for 5 min, and cells were washed twice in 2 ml of 1×washing buffer following the addition of 1 μl of PI.

[9] = system: biopsylike BL cells; test: PARP-1 cleavage; format: cell-based; settings: 20 μM fluoxetine
[10] = system: L3055 BL cells; test: DNA synthesis by [3H]-thymidine incorporation in L3055 cells; format: cell-based
Method: DNA synthesis was determined by measuring ^3H-thymidine ([^3H]Tdr; Amersham, UK) incorporation into cellular DNA. Cells were cultured in 200 μL of supplemented medium at densities and for times indicated below in flat-bottomed, 96-well tissue culture plates (Becton Dickinson, Oxford, U K) then pulsed for the final 4 h with 50 μl of 10 μCi/ml [^3H]Tdr before harvesting on a Skatron cell harvester (Helis Bio Ltd, Newmarket, UK).

[11] = system: L3055 cells; test: Cell cycle analysis (propidium iodide, flow cytometry); format: cell-based; settings: 24 hr; each at its maximal concentration (5-HT 150 μM, fluoxetine 10 μM, anti-μ chain antibody 10 μg/ml)
Method: Cells cultured under conditions indicated below were harvested into 100 μl of 1×PBS followed by 400 μl cell cycle buffer containing Triton X-100 and propidium iodide and left to incubate at 4° C. for 1 hr to allow staining of DNA. The degree of fluorescence emitted by bound PI is directly proportional to the amount of DNA in each cell and was measured by flow cytometry as previously described (MacDonald I, et al. Blood (1996); 87:1147-1154). Results are expressed as percentage of viable cells residing in each phase of the cycle.

[12] = system: L3055 cells; test: Intracellular free Ca2+; format: cell-based
Text: The increase in intracellular free Ca^2+ is known to be an important step in the induction of apoptosis.

inhibition of DNA synthesis in actively cycling B cells (in words) [1]: Little inhibition of DNA synthesis
SMILES: CNCCC(Oc1ccc(C(F)(F)F)cc1)c1ccccc1 (stereo not shown) [fluoxetine]
Annexin V binding MFI ([2]; control 3.9 ± 0.2): 26.1 ± 8.4
Annexin V binding % positive ([2]; control 52.3 ± 1.8): 81.1 ± 3.9%
level of 3H-Thymidine incorporation in non-BL lines (in words) [3]: either no, or only minor reductions
lymphoma cells entering apoptosis ([4]; fluoxetine 10-15 μM, 24 hours): about 40%
number of viable cells (syto 16+ve/PI−ve) (in words) ([4]; increasing concentrations, 24 hr): directly drove the lymphoma cells to die
% TUNEL positive [5]: 35.7 ± 7.6%
viability of PBMC ([6]; 5 μM): 97.3±0.88%
viability of PBMC ([6]; 10 μM): 97.3±0.33%
reduction in levels of c-myc ([7]; 6 h exposure to fluoxetine): ~60%
reduction in levels of nm23-H2 ([7]; 6 h exposure to fluoxetine): ~60%
decrease in the expression of nm23-H1 mRNA ([7]; fluoxetine): 75%
effect on number of cells showing caspase activity (in words) [8]: significant effect on the numbers of cells showing caspase activity
PARP-1 cleavage (in words) [9]: extensive PARP-1 cleavage
influence of pre-treatment on 5-HT-dependent inhibition of DNA synthesis (in words) ([10]; cells pre-treated with agent before 5-HT): substantially reversed
effect on DNA synthesis (in words) ([10]; single dose, range of concentrations, [3H]-thymidine incorporation at 24 hr): dose dependent inhibitory effect
cell cycle status (in words) [11]: accumulation of arresting cells in the G0/G1 compartment
basal Ca2+ (in words) ([12]; data not shown): increase in basal Ca^2+
levels of intracellular free Ca2+ (in words) ([12]; fluoxetine concentration range (FIG. 23)): sustained increase in the levels of intracellular free Ca^2+
